Values quoted from earlier work as cited in EP4088714A1, “OPHTHALMIC PHARMACEUTICAL COMPOSITION COMPRISING ATROPINE” (Warszawskie Zaklady Farmaceutyczne Polfa S.A., priority 2021, dated 2022).

**Q.** Which results are given for `CN1[C@@H]2CC[C@H]1C[C@@H](OC(=O)C(CO)c1ccccc1)C2` (some centres unmarked) [atropine, Atropine]?
**A.** need for photochromatic glasses (concentrations 0.01% to 0.05%, treated patients, two years of treatment): higher than 30%; tolerability (concentrations ranging from 0.01% to 0.05%, 383 children, after two years of treatment): well tolerated
